pIC50: −log10 of the molar value. Structures can show the parent of a compound that is named as a salt.
These molecules were tested against T1, human LTA4 hydrolase (Homo sapiens, UniProt P09960) (assay: LTA4H Enzyme assay (cleavage of Arg-AMC, fluorescence)). Conditions: LTA4H Enzyme 1 nM, Arg-AMC substrate 50 μM, room temperature 1 h, fluorescence; read-out: IC50 values of LTA4H Enzyme assay.
T1 sequence (P09960 1-611): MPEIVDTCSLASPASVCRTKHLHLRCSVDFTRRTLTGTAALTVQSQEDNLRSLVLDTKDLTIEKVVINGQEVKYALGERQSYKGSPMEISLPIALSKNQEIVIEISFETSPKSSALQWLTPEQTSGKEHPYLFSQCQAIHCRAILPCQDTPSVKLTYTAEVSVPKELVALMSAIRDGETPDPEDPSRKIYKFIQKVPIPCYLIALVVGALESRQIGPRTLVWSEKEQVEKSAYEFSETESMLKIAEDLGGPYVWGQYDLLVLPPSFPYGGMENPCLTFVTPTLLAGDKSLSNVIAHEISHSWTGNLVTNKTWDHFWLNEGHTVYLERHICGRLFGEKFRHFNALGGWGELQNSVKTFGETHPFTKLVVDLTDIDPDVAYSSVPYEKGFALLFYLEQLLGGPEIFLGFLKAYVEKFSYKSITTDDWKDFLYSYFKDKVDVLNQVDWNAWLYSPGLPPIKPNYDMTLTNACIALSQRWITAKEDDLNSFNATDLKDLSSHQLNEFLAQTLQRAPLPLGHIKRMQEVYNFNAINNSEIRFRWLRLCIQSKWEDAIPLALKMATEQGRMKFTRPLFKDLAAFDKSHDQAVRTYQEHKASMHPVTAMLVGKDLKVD
Assay type: biochemical
Experimental: The compounds of the invention are assessed for the ability to interact with human LTA4 hydrolase in an enzymatic assay that measures the ability of the enzyme to cleave the peptide bond of arginyl-aminomethylcoumarin (Arg-AMC). LTA4H Enzyme (1 nM final), Arg-AMC substrate (50 μM final), and compound are combined in a reaction buffer (50 mM Tris-HCl (pH 7.5), 100 mM KCl, 0.5% bovine serum albumin) at room temperature for 1 h. The formation of product is assessed by measuring the fluorescence of aminomethylcoumarin product (excitation wavelength 380 nm/emission wavelength 460 nm).
In the case of O=C(O)C1CN(Cc2ccc([C@H]3COc4ccccc4O3)cc2)Cc2ccccc21 (stereo partly drawn) [Example 56, 2-{4-[(2S)-2,3-dihydro-1,4-benzodioxin-2-yl]benzyl}-1,2,3,4-tetrahydroisoquinoline-4-carboxylic acid], the pIC50 was 8.22.
In the case of c1ccc2c(c1)OCC(c1ccc(CN3CCn4cnnc4C3)cc1)O2 (racemic) [Example 16, 7-[4-(2,3-dihydro-1,4-benzodioxin-2-yl)benzyl]-5,6,7,8-tetrahydro[1,2,4]triazolo[4,3-a]pyrazine], the pIC50 was 8.63.
In the case of CC1(C)CCN(Cc2ccc(C3COc4ccccc4O3)cc2)CC1 (racemic) [Example 3, 1-[4-(2,3-dihydro-1,4-benzodioxin-2-yl)benzyl]-4,4-dimethylpiperidine], the pIC50 was 8.59.
OCC1CCN(Cc2ccc([C@H]3COc4cccnc4O3)cc2)CC1 [Example 146, (1-{4-[(3S)-2,3-dihydro[1,4]dioxino[2,3-b]pyridin-3-yl]benzyl}piperidin-4-yl)methanol] gave a pIC50 of 9.54.
In the case of O=C(O)[C@H]1CCN(Cc2ccc([C@H]3COc4ccccc4O3)cc2)C1 [Example 215, (3S)-1-{4-[(2S)-2,3-dihydro-1,4-benzodioxin-2-yl]benzyl}pyrrolidine-3-carboxylic acid], the pIC50 was 9.15.
For CN1CCCC2(CCN(Cc3ccc([C@H]4COc5ccccc5O4)cc3)CC2)C1=O [Example 130, 9-[(S)-4-(2,3-Dihydro-benzo[1,4]dioxin-2-yl)-benzyl]-2-methyl-2,9-diaza-spiro[5.5]undecan-1-one], the pIC50 was 9.29.
For CNC(=O)C1CCN(Cc2ccc([C@H]3COc4cccnc4O3)cc2)CC1 [Example 152, 1-{4-[(3S)-2,3-dihydro[1,4]dioxino[2,3-b]pyridin-3-yl]benzyl}-N-methylpiperidine-4-carboxamide], the pIC50 was 9.77.
With CN(Cc1ccc([C@H]2COc3ccccc3O2)cc1)C1CCN(S(C)(=O)=O)CC1 [Example 13, N-{4-[(2S)-2,3-dihydro-1,4-benzodioxin-2-yl]benzyl}-N-methyl-1-(methylsulfonyl)piperidin-4-amine] the pIC50 was 9.44.
Work on CC(C)(C(=O)O)C1CCN(Cc2ccc([C@H]3COc4cccnc4O3)cc2)CC1 [Example 230, 2-{1-[(S)-4-(2,3-Dihydro-[1,4]dioxino[2,3-b]pyridin-3-yl)-benzyl]-piperidin-4-yl}-2-methyl-propionic acid formate salt] yielded a pIC50 of 8.91.
In the case of O=C(CNCc1ccc(C2COc3ccccc3O2)cc1)N1CCCC1 (racemic) [Example 12, 2-{[4-(2,3-dihydro-1,4-benzodioxin-2-yl)benzyl]amino}-1-(pyrrolidin-1-yl)ethanone], the pIC50 was 7.99.
In the case of COC1CN(Cc2ccc([C@H]3COc4cccnc4O3)cc2)C1 [Example 166, (3S)-3-{4-[(3-methoxyazetidin-1-yl)methyl]phenyl}-2,3-dihydro[1,4]dioxino[2,3-b]pyridine], the pIC50 was 9.17.
Work on CN(Cc1ccc([C@H]2COc3cccnc3O2)cc1)C1CCN(S(C)(=O)=O)CC1 [Example 169, N-{4-[(3S)-2,3-dihydro[1,4]dioxino[2,3-b]pyridin-3-yl]benzyl}-N-methyl-1-(methylsulfonyl)piperidin-4-amine] yielded a pIC50 of 9.48.
For O=C(O)[C@@H]1CCCN(Cc2ccc([C@H]3COc4ccccc4O3)cc2)C1 [Example 19, (3R)-1-{4-[(2S)-2,3-dihydro-1,4-benzodioxin-2-yl]benzyl}piperidine-3-carboxylic acid], the pIC50 was 9.14.
CCN(Cc1ccc([C@H]2COc3ccccc3O2)cc1)Cc1cccc(C(=O)O)c1 [Example 238, 3-{[{4-[(2S)-2,3-dihydro-1,4-benzodioxin-2-yl]benzyl}(ethyl)amino]methyl}benzoic acid] was tested, and the pIC50 was 9.26.
CC(C)(C)C(CC(=O)O)NCc1ccc([C@H]2COc3ccccc3O2)cc1 (stereo partly drawn) [Example 58, 3-({4-[(2S)-2,3-dihydro-1,4-benzodioxin-2-yl]benzyl}amino)-4,4-dimethylpentanoic acid] gave a pIC50 of 8.87.
In the case of CCN(CC)Cc1ccc(C2COc3ccccc3O2)cc1 (racemic) [Example 45, N-[4-(2,3-dihydro-1,4-benzodioxin-2-yl)benzyl]-N-ethylethanamine], the pIC50 was 9.05.
Molecule O=C(O)C[C@H]1CCN(Cc2ccc([C@H]3COc4ccccc4O3)cc2)C1 [Example 184, [(3R)-1-{4-[(2S)-2,3-dihydro-1,4-benzodioxin-2-yl]benzyl}pyrrolidin-3-yl]acetic acid] has a pIC50 of 9.96.
Work on c1ccc2c(c1)OC[C@H](c1ccc(CN3CCCC3)cc1)O2 (single isomer, unassigned) [Example 196] yielded a pIC50 of 9.41.
Molecule C[C@H]1CC[C@H](NCc2ccc([C@H]3COc4ccccc4O3)cc2)CC1 [Example 100, trans-N-{4-[(2S)-2,3-dihydro-1,4-benzodioxin-2-yl]benzyl}-4-methylcyclohexanamine] has a pIC50 of 8.63.
For O=C(O)C1CCN(Cc2ccc([C@@H]3COc4ccccc4O3)cc2)CC1 [Example 201, (R)-1-[4-(2,3-Dihydro-benzo[1,4]dioxin-2-yl)-benzyl]-piperidine-4-carboxylic acid], the pIC50 was 8.80.
O=C1NC(=O)C2(CCN(Cc3ccc(C4COc5ccccc5O4)cc3)CC2)N1 (racemic) [Example 35, 8-[4-(2,3-dihydro-1,4-benzodioxin-2-yl)benzyl]-1,3,8-triazaspiro[4.5]decan-2,4-dione] was tested, and the pIC50 was 9.59.
CC(C)(O)C(=O)NC1CCN(Cc2ccc([C@H]3COc4cccnc4O3)cc2)CC1 [Example 221, N-(1-{4-[(3S)-2,3-dihydro[1,4]dioxino[2,3-b]pyridin-4-yl]benzyl}piperidin-4-yl)-2-hydroxy-2-methylpropanamide] was tested, and the pIC50 was 9.80.
c1ccc2c(c1)OCC(c1ccc(CNC3CCCC3)cc1)O2 (racemic) [Example 41, N-[4-(2,3-dihydro-1,4-benzodioxin-2-yl)benzyl]cyclopentanamine] gave a pIC50 of 8.43.
For O=C1CCN(Cc2ccc([C@H]3COc4ccccc4O3)cc2)CCN1 [Example 131, 1-{4-[(2S)-2,3-dihydro-1,4-benzodioxin-2-yl]benzyl}-1,4-diazepan-5-one], the pIC50 was 8.76.
Molecule CN(C)C(=O)CC1CCN(Cc2ccc([C@H]3COc4cccnc4O3)cc2)CC1 [Example 171, 2-(1-{4-[(3S)-2,3-dihydro[1,4]dioxino[2,3-b]pyridin-3-yl]benzyl}piperidin-4-yl)-N,N-dimethylacetamide] has a pIC50 of 9.35.
COCCOC1CCN(Cc2ccc([C@H]3COc4cccnc4O3)cc2)CC1 [Example 170, (3S)-3-(4-{[4-(2-methoxyethoxy)piperidin-1-yl]methyl}phenyl)-2,3-dihydro[1,4]dioxino[2,3-b]pyridine] gave a pIC50 of 9.33.
OCC1CCN(Cc2ccc(C3COc4ccccc4O3)cc2)CC1 (racemic) [Example 27, {1-[4-(2,3-dihydro-1,4-benzodioxin-2-yl)benzyl]piperidin-4-yl}methanol] showed a pIC50 of 8.92.
Molecule COCCN(C)Cc1ccc(C2COc3ccccc3O2)cc1 (racemic) [Example 33, N-[4-(2,3-dihydro-1,4-benzodioxin-2-yl)benzyl]-2-methoxy-N-methylethanamine] has a pIC50 of 8.50.
c1ccc2c(c1)OC[C@@H](c1ccc(CN3CCCC3)cc1)O2 (single isomer, unassigned) [Example 197] gave a pIC50 of 8.57.
O=C1OCCN1Cc1ccc(C2COc3cccnc3O2)cc1 (stereo not shown) [Example 209, 3-[4-(2,3-dihydro[1,4]dioxino[2,3-b]pyridin-3-yl)benzyl]-1,3-oxazolidin-2-one] was tested, and the pIC50 was 7.91.
Work on Oc1ccc2c(c1)CCN(Cc1ccc([C@H]3COc4ccccc4O3)cc1)C2 [Example 112, 2-{4-[(2S)-2,3-dihydro-1,4-benzodioxin-2-yl]benzyl}-1,2,3,4-tetrahydroisoquinolin-6-ol] yielded a pIC50 of 8.97.
With O=C1CN(Cc2ccc([C@H]3COc4ccccc4O3)cc2)CN1 [Example 92, 1-{4-[(2S)-2,3-dihydro-1,4-benzodioxin-2-yl]benzyl}imidazolidin-4-one] the pIC50 was 7.44.
In the case of O=C(O)c1ccc(C2CCN(Cc3ccc([C@H]4COc5cccnc5O4)cc3)CC2)cc1 [Example 235, 4-(1-{4-[(3S)-2,3-dihydro[1,4]dioxino[2,3-b]pyridin-3-yl]benzyl}piperidin-4-yl)benzoic acid], the pIC50 was 10.10.
With c1ccc2c(c1)OC[C@@H](c1ccc(CN3CCOCC3)cc1)O2 (single isomer, unassigned) [Example 199] the pIC50 was 7.40.
In the case of O[C@@H]1CCN(Cc2ccc([C@H]3COc4ccccc4O3)cc2)C1 [Example 88, (3R)-1-{4-[(2S)-2,3-dihydro-1,4-benzodioxin-2-yl]benzyl}pyrrolidin-3-ol], the pIC50 was 9.27.
With CN(CCc1ccccn1)Cc1ccc(C2COc3ccccc3O2)cc1 (racemic) [Example 42, N-[4-(2,3-dihydro-1,4-benzodioxin-2-yl)benzyl]-N-methyl-2-(pyridin-2-yl)ethanamine] the pIC50 was 9.16.
Molecule O=C(O)[C@H]1CCCN(Cc2ccc([C@H]3COc4ccccc4O3)cc2)C1 [Example 20, (3S)-1-{4-[(2S)-2,3-dihydro-1,4-benzodioxin-2-yl]benzyl}piperidin-3-carboxylic acid] has a pIC50 of 8.89.
